Common to all, as to assay: growth of human tumour cells (NCI), 48 h
Assay [1] has as its system M14 melanoma.
In assay [2] the test system is SNB-75 CNS.
The test system of assay [3] is MOLT-4 leukemia.
The test system of assay [4] is SF-268 CNS.
Assay [5] has as its system CCRF-CEM leukemia.
For assay [6], the system named is MCF7 breast.
In assay [7] the test system is PC-3 prostate.
Assay [8] deals with OVCAR-8 ovarian.
For assay [9], the system named is HCC-2998 colon.
Assay [10] deals with OVCAR-5 ovarian.
The subject of assay [11] is DU-145 prostate.
The test system of assay [12] is SK-MEL-5 melanoma.
Assay [13] relates to K-562 leukemia.
Assay [14] has as its system SK-OV-3 ovarian.
In assay [15] the test system is NCI-H226 lung.
For assay [16], the system named is SF-295 CNS.
Assay [17] concerns MALME-3M melanoma.
Assay [18] relates to UO-31 renal.
Assay [19] has as its system RXF 393 renal.
The test system of assay [20] is OVCAR-4 ovarian.

TGI data for eight compounds are collected here from PubChem BioAssay (NCI).

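All cell lines were grown in 96-well plates and treated with compound for 48 hours. TGI: total growth inhibition.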

As to `CNC(=O)CCCNC(=O)CCCC(=O)OC`, the TGI in assay [1], in assay [2], in [3], in assay [4], in assay [5] and in assay [6] was more than 100 µM in each case. Moreover, the TGI in assay [7], in assay [8], in [9], in assay [10], in assay [11] and in assay [12] was more than 100 µM in each case. Besides, the TGI in assay [13], in [14], in [15], in [16], in assay [17] and in [18] was more than 100 µM throughout.

On to `CC1CC(N2CCOCC2)=Nc2ccccc2N1Cc1ccccc1` (stereo unspecified), for which the TGI in assay [19] was 63.4 µM; in [1], more than 100 µM; in [20], more than 100 µM; in assay [4], more than 100 µM; in assay [5], more than 100 µM; in [7], more than 100 µM. In addition, the TGI in [8], in [10], in assay [11], in assay [12], in assay [13] and in assay [14] was more than 100 µM in each case. The TGI is more than 100 µM in assay [15], more than 100 µM in assay [16], 63.1 µM in assay [17] and more than 100 µM in assay [18].

With `O=C(O)Cc1cccc2c(=O)c3cccc([N+](=O)[O-])c3[nH]c12`, the TGI in assay [1], in assay [2], in assay [20], in assay [3], in assay [5] and in assay [6] was more than 100 µM each time. Also, the TGI in assay [7], in [8], in assay [9], in [10], in [11] and in assay [12] was more than 100 µM each time. The TGI is more than 100 µM in assay [13]; more than 100 µM in assay [14]; more than 100 µM in [16]; 97.6 µM in assay [17]; more than 100 µM in [18].

For the compound `C=C[C@]1(O[Si](C)(C)C)C[C@@]2(C(=O)OCC)C(O)C(=O)N3CCc4cc(OC)c(OC)cc4[C@]312` (stereo partly specified), the TGI in assay [19], in [1], in [2], in assay [20], in [3] and in assay [4] was more than 100 µM throughout. For the same compound, the TGI in [5], in assay [6], in assay [7], in assay [8], in assay [10] and in [11] was more than 100 µM throughout. The TGI in assay [12], in [13], in [14], in assay [15], in [16] and in [17] was more than 100 µM throughout. The same compound came in with a TGI in [18] of more than 100 µM.

Regarding `BrCc1ccc(CBr)c2c1-c1c(CBr)ccc3ccc(CBr)c-2c13`, the TGI in assay [1], in assay [2], in [20], in assay [3], in assay [4] and in assay [6] was more than 100 µM throughout. Moreover, the TGI in assay [7], in assay [8], in [9], in assay [10], in assay [11] and in assay [13] was more than 100 µM throughout. Moreover, the TGI in assay [14], in assay [15], in [16], in assay [17] and in assay [18] was more than 100 µM throughout.

Consider `c1cc(CN2CCNCCNCCNCC2)cc(CN2CCNCCNCCNCC2)c1`, for which the TGI in assay [1], in [2], in assay [20], in assay [3], in assay [4] and in assay [6] was more than 100 µM in each case. Moreover, the TGI in [7], in assay [8], in [9], in [10], in [11] and in [12] was more than 100 µM each time. In addition, the TGI in assay [13], in [14], in assay [15], in [16], in assay [17] and in assay [18] was more than 100 µM in each case.

Regarding `COc1cc(C(=O)O)c(-c2cc3c(cc2C=O)OCO3)c(OC)c1OC`, the TGI in assay [1], in assay [2], in assay [20], in assay [3], in assay [4] and in [5] was more than 10 µM in each case. For the same compound, the TGI in assay [6], in assay [7], in [8], in assay [9], in assay [11] and in assay [12] was more than 10 µM in each case. Besides, the TGI in assay [13], in assay [14], in [16] and in [17] was more than 10 µM in each case.

As to `O=[N+]([O-])/C=C/c1cn(CCCCCCCCCCCCn2cc(/C=C/[N+](=O)[O-])c3ccccc32)c2ccccc12`, the TGI in assay [1], in assay [20], in assay [3], in assay [5], in assay [6] and in assay [7] was more than 100 µM in each case. Besides, the TGI in assay [8], in assay [9], in [10], in assay [11], in assay [12] and in [14] was more than 100 µM each time. The TGI in assay [15], in assay [17] and in assay [18] was more than 100 µM in each case.
